Drawing on ChEMBL document CHEMBL1201862, “PubChem BioAssay data set” (2004), this text covers AC50 and EC50 for 51 molecules.

Activity calls are given as the source filed them. Where only a bound is given, the exact number is not on record here.

In series [1] the target is Cytochrome P450 2D6 (Homo sapiens, UniProt P10635).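 Also: CYP2D6 member of a cytochrome P450 panel assay.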
Series [2] concerns the target T1, Cytochrome P450 1A2 (Homo sapiens, UniProt P05177).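 Also: PubChem cytochrome P450 panel assay, CYP1A2 panel member.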
T1 sequence (P05177 whole entry): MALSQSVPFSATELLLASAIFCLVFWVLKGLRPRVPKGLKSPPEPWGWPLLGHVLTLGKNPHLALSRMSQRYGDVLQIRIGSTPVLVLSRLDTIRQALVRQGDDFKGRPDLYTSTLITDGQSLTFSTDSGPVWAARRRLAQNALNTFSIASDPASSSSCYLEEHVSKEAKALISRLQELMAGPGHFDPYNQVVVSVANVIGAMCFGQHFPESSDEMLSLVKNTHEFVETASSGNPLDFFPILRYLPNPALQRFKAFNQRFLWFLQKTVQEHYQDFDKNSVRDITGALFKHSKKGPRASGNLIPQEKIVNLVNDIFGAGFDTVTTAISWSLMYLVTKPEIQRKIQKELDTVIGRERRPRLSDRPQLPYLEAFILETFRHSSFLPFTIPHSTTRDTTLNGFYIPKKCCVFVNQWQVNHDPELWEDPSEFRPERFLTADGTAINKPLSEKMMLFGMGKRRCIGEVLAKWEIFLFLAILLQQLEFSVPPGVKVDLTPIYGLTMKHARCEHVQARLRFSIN

Series [3] has as its target Cytochrome P450 2C19 (Homo sapiens, UniProt P33261). Nature of the series: Cytochrome panel assay with activity outcomes. Panel member name: p450-cyp2c19 Compounds with AC50 equal or less than 10 uM are considered active. In kind it is functional.
Series [4] is described as follows: P. falciparum Dd2 growth inhibitors, dose response, SYBR Green, cherry-picked samples (AID 1159567). In kind it is functional, cell-based.
Series [5] deals with T2, Heat shock factor protein 1 (Mus musculus, UniProt P38532).
T2 sequence (P38532 whole entry): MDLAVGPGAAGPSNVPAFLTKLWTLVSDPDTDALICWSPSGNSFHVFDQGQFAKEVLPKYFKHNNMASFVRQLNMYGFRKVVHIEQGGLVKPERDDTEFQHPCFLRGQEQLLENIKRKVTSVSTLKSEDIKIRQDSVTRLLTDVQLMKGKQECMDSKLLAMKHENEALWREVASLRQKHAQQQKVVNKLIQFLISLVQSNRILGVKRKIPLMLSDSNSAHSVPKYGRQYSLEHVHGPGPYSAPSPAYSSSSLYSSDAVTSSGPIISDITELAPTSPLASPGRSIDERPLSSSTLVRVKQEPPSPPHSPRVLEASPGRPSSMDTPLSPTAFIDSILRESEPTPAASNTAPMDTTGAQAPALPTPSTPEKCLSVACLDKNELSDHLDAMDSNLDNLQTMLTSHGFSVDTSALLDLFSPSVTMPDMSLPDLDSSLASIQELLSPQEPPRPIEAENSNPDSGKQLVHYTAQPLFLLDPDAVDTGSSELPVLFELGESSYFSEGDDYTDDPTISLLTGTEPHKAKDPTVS
Nature of the series: inhibition of MG132-induced HSE-luciferase signal, confirmation, cell-based, NIH3T3, luminescence, dose retest (AID 2382).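 Also: NIH3T3 fibroblasts with HSF1-driven luciferase reporter stressed by proteasome inhibitor MG132; luminescence from HSF1-driven luciferase expression after 8 hours of MG132 stress.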 In kind it is functional.

Series [6] has as its target Cytochrome P450 3A4 (Homo sapiens, UniProt P08684).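 Also: CYP3A4 tested as one member of a cytochrome P450 panel screen.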

Chain of Cytochrome P450 2D6 (P10635 whole entry): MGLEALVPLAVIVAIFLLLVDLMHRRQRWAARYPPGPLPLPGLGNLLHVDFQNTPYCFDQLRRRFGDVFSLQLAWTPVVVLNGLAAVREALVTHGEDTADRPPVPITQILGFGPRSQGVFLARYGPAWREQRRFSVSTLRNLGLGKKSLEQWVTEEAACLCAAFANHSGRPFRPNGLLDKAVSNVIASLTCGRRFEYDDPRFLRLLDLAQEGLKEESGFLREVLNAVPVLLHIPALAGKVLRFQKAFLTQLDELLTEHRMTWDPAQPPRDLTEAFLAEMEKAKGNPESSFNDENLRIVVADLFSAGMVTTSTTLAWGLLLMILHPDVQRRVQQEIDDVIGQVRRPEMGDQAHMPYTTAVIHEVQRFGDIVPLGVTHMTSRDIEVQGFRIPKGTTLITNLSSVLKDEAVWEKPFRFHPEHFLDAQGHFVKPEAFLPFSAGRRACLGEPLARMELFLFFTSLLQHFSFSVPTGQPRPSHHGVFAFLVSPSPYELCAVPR
Chain of Cytochrome P450 2C19 (P33261 whole entry): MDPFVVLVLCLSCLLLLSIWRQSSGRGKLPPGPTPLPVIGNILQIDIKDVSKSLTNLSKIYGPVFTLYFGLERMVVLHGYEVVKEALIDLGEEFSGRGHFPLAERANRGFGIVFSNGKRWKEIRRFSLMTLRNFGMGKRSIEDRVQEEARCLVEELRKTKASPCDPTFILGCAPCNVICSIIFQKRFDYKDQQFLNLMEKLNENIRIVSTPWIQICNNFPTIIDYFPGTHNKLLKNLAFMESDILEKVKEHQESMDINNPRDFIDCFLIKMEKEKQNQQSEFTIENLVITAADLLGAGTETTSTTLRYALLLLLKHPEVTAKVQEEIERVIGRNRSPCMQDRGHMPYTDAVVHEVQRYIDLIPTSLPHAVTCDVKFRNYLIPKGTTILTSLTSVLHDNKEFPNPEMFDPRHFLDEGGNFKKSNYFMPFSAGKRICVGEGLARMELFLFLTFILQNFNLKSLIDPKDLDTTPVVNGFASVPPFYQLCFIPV
Chain of Cytochrome P450 3A4 (P08684 whole entry): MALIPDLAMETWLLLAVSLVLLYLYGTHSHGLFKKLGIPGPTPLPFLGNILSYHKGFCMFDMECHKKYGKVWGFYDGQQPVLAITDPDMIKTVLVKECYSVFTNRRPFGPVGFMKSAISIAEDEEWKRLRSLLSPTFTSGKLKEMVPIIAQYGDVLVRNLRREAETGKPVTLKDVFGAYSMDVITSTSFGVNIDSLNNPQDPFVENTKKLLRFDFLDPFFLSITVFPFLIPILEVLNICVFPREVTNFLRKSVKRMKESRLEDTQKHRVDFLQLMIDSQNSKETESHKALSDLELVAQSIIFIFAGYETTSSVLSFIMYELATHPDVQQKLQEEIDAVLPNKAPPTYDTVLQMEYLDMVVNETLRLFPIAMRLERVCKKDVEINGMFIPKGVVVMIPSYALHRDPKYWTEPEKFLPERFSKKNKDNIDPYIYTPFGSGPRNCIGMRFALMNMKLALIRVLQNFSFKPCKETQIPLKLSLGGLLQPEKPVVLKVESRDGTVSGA

What is called AC50 is the midpoint of the concentration-response curve, whichever way the signal moves. As for `Cc1ccccc1-c1nccc(NCCN2CCOCC2)n1`, in series [1], the concentration at half-maximal activity (AC50) is 31.6 µM (inconclusive).
In the case of `CCCOc1ccc(OCCNC2CCCC2)cc1`, the concentration at half-maximal activity (AC50) in series [2] is 14.1 µM (inconclusive); in series [3] (read-out: AC50), 31.6 µM (inconclusive).
As for `COc1ccc2c3c([nH]c2c1)[C@H](CO)N(Cc1cc(F)ccc1F)CC31CN(C(=O)C2CCC2)C1`, in series [4], the AC50 is 7.04 µM (active).
Same read-out and setting: as for `C/C=C/c1ccc([C@H]2[C@@H](CO)N(C(=O)CC)[C@@H]2CNCC2CCCCC2)cc1`, the figure is 4.04 µM (active).
The term EC50 denotes the concentration needed to bring the measured effect to its halfway point. For the molecule `CCCCn1c(C(C)NC(=O)CC)nc2ccccc21` (configuration not stated), the EC50 in series [5] was > 195 µM (not active).
On to `O=C(C[C@H]1C[C@H]2c3cc(NC(=O)Cc4ccncc4)ccc3O[C@H]2[C@H](CO)O1)NCc1ccccc1`, for which, in series [4], the AC50 was 4.55 µM (active).
With `C[C@@H]1CN([C@@H](C)CO)C(=O)c2c(c3ccccc3n2C)-c2ccccc2CO[C@H]1CN(C)C(=O)Cc1ccccc1`, in series [4], the AC50 was 5.21 µM (active).
For `Cc1cccc(CNc2ccnc(-c3cccc(NS(C)(=O)=O)c3)n2)c1`, in series [1], the AC50 was 39.8 µM (inconclusive).
`COc1cccc(N(CC(=O)Nc2cccnc2)S(C)(=O)=O)c1`: the EC50 in series [5] is listed as > 195 µM (not active).
On to `CCn1c(SCC(=O)N(C)C2CCS(=O)(=O)C2)nnc1-c1cccs1` (configuration not stated), for which the EC50 in series [5] is recorded as > 195 µM (not active).
For `CC(=O)Cc1c[nH]c2ccccc12`, the EC50 in series [5] is reported as > 195 µM (not active).
Consider `Cc1cc(Cc2cc(Cc3cc(C)cc(C(C)(C)C)c3O)c(C)cc2C)c(O)c(C(C)(C)C)c1`, for which the AC50 in series [1] was 3.98 µM (inconclusive).
With `CSc1ccccc1NC(=O)C1=CC(c2ccc(C)cc2)=NS(=O)(=O)N1C`, in series [5], the EC50 is > 195 µM (not active).
With `CC(=O)N1CCC2(CC1)CCN(c1cccc(-c3ccccc3)c1)CC2`, the AC50 in series [1] was 31.6 µM (inconclusive).
With `Cc1ccc(Cn2nc(C)c(NC(=O)c3cc(-c4ccco4)on3)c2C)cc1`, in series [2], the AC50 was 39.8 µM (inconclusive).
Consider `O=C(Nc1cccc(F)c1)N[C@@H]1CC[C@H](CCNS(=O)(=O)c2cccc(Cl)c2)O[C@H]1CO`, for which the AC50 in series [4] is 31.2 µM (active).
With `COc1ccc(NS(=O)(=O)NC(=O)c2cn(C)c3ccccc23)cc1`, the EC50 in series [5] was > 195 µM (not active).
As to `CC1CN(C(=O)Nc2ccc3c(c2)OCCO3)CC(C)O1` (configuration not stated), the EC50 in series [5] is reported as > 195 µM (not active).
On to `CC(Sc1nc(NCc2ccccc2)nc(N(C)C)n1)C(=O)Nc1ccccc1` (configuration not stated), for which, in series [1], the AC50 is 15.8 µM (inconclusive).
On to `O=C(c1ccccc1F)N1CC[C@H]2[C@H](CO)Nc3ccc(C#Cc4ccc(F)cc4)cc3[C@H]21`, for which the AC50 in series [4] was 4.96 µM (active).
With `COc1cc(C(=O)Nc2ccc3c(c2)OCCO3)c(-n2cnnn2)cc1OC`, the AC50 in series [2] was 2.51 µM (inconclusive); in series [3] it was “inconclusive”; in series [6], 25.1 µM (inconclusive).
Consider `O=C(CNC1CCCCCC1)Nc1ccccc1N1CCCCC1`, for which, in series [2], the AC50 was 14.1 µM (inconclusive).
For the molecule `O=C(O)c1cccc(N2C(=O)/C(=C/c3ccc([N+](=O)[O-])cc3)C=C2c2ccccc2)c1`, the EC50 in series [5] is listed as > 195 µM (not active).
For `O=C(CSc1ccc(Br)cc1)Nc1ccccc1N1CCOCC1`, the EC50 in series [5] was > 195 µM (not active).
On to `Cc1noc(C)c1-c1cc(NC2CC2)ncn1`, for which the AC50 in series [1] was 20 µM (inconclusive); in series [3] (read-out: AC50), 31.6 µM (inconclusive); in series [6] it was 25.1 µM (inconclusive).
Turning to `COc1cccc(-c2ccc3c(c2)[C@@H]2[C@@H](CCN2C(=O)C2CCCCC2)[C@H](CO)N3)c1`, in series [4], the AC50 is 4.18 µM (active).
For the molecule `CS(=O)(=O)Nc1cccc(-c2nccc(NCc3cccs3)n2)c1`, the AC50 in series [1] and in series [3] (read-out: AC50) was 25.1 µM (inconclusive) each time.
With `Cc1ccc(CNC(=O)COC(=O)c2cnccn2)cc1`, the AC50 entry is “inconclusive” in series [3] and 17.8 µM (inconclusive) in series [6].
For `O=C1/C(=C\c2ccccc2)C[C@@]2(O)[C@H]3Cc4ccc(O)c5c4[C@@]2(CCN3CC2CC2)[C@@H]1O5`, the AC50 in series [2] is 31.6 µM (inconclusive); in series [3] (read-out: AC50), 15.8 µM (inconclusive); in series [6] it was 31.6 µM (inconclusive).
For `O=C1c2ccccc2C(Nc2ccc3c(c2)OCCO3)N1c1ccccn1` (configuration not stated), the EC50 in series [5] is 57.5 µM (active).
Turning to `N#C/C(=C\c1ccccn1)c1ccccn1`, in series [5], the EC50 was > 195 µM (not active).
Regarding `Cc1oc2c(C)c(O)ccc2c(=O)c1-c1ccc2ccccc2n1`, the AC50 in series [3] (read-out: AC50) is 2.82 µM (inconclusive); in series [6], 7.94 µM (inconclusive).
As for `CCCNC(=O)c1ccc(N2CCC3(CC2)CC(c2cccc(Br)c2)=NO3)c(NC(=O)c2ccc(Br)cc2)c1`, the EC50 in series [5] is > 195 µM (not active).
In the case of `OC[C@@H]1CC[C@@H]2O[C@H](CCc3ccc(C#Cc4ccccc4)cc3)[C@H](n3cc(-c4ccccc4)nn3)C[C@@H]2O1`, the AC50 in series [4] was 3.86 µM (active).
As for `C[C@@H](C(=O)Nc1ccc2ccccc2c1)[C@H]1C[C@]1(C)[C@H](NC(=O)c1cnccn1)c1ccccc1`, the AC50 in series [2] was 25.1 µM (inconclusive).
As for `Cc1ccc(N(Cc2cc3ccc(C)cc3nc2O)C(=O)c2cccs2)cc1`, the EC50 in series [5] is recorded as > 195 µM (not active).
With `COc1ccc2c3c([nH]c2c1)[C@H](CO)N(Cc1ccc(F)cc1)CC31CCN(C(C)=O)CC1`, the AC50 in series [4] is 5.92 µM (active).
Regarding `Cc1ccc(NC2=NC(=O)/C(=C\c3cccs3)S2)cc1C`, the EC50 in series [5] was > 195 µM (not active).
On the same count and under the same terms, with `O=[N+]([O-])c1cccc(-c2nnc(-c3ccccc3)o2)c1` the figure was > 195 µM (not active).
Take `COc1ncc2nc(-c3cccs3)c(=O)n(Cc3cccs3)c2n1`: in series [1], the AC50 is 3.98 µM (inconclusive).
On to `CN1CCN([C@@H]2Cc3ccccc3Sc3ccc(Cl)cc32)CC1`, for which the AC50 in series [2] is 12.6 µM (inconclusive); in series [3] (read-out: AC50), 25.1 µM (inconclusive).
As to `Cc1cc2ccccc2c(=O)n1CC(=O)Nc1ccc2c(c1)OCO2`, the EC50 in series [5] was > 195 µM (not active).
In the case of `O=C(CSc1ccccn1)Nc1nc2ccc(Br)cc2s1`, the values for the AC50 in series [1] and in series [6] were 15.8 µM (inconclusive) and 22.4 µM (inconclusive), respectively.
For the molecule `Cn1c(C(=O)O)c(CC(=O)Nc2ccc3c(c2)OCCO3)c2ccccc21`, in series [5], the EC50 was 1.95 µM (active).
Take `Cc1ccccc1-c1cc(Nc2ccc(F)cc2)ncn1`: the AC50 in series [1] is 31.6 µM (inconclusive); in series [6], 39.8 µM (inconclusive).
For `Cc1ccc(C)c(N(CC(=O)NC2CCCC2)C(=O)c2cc3cc4cccc(C)c4nc3s2)c1`, the AC50 in series [3] (read-out: AC50) was 6.31 µM (inconclusive); in series [6], 2.51 µM (inconclusive).
For the molecule `C[C@@H]1CN([C@H](C)CO)C(=O)c2cccc(NS(=O)(=O)c3ccccc3)c2O[C@H]1CN(C)Cc1ccc(-c2ccccc2)cc1`, the AC50 in series [4] is 3.68 µM (active).
For `c1cc(C2N3CCCN2CC3)ccn1` (configuration not stated), the AC50 was 1.26 µM (inconclusive) in series [2] and “inconclusive” in series [3].
Consider `O=C(O)CCCc1ccc2ccccc2c1`, for which the AC50 in series [2] is 3.16 µM (inconclusive).
For the molecule `Cc1onc(-c2c(F)cccc2Cl)c1C(=O)c1ccccc1`, in series [5], the EC50 is listed as > 195 µM (not active).
With `Cc1c2cccc(Sc3ccccc3)c2c2c3c(cccc13)[S+](c1ccccc1)C2` (configuration not stated), the AC50 in series [1] is 5.01 µM (inconclusive); in series [6], 3.16 µM (inconclusive).
